# Experimental data reported in ChEMBL document CHEMBL3507680, “University of Dundee, Gates Library screen for HepG2 cell viability”.
# Test: Human HepG2 cell viability assay in 384 well format
# Type: toxicity, cell-based
# Design: dose 125 nL, time 70.5 hour; cytotoxicity at 70.5 h: concentration not given beside the values
# Conditions: HepG2 cells, read-out: Inhibition
row,SMILES,cytotoxicity at 70.5 h [%]
1,CN(CC(=O)N1CCC(Cc2cccc(C(N)=O)c2)C1)C1CCCC1 (stereo unspecified),20.8
2,CCCc1nc(CN(CC)C(=O)c2ccc3c(c2)nnn3C)no1,-2.39
3,Cc1ccsc1-c1nccn1CCS(C)(=O)=O,16.2
4,c1cc(-c2cn[nH]c2)ccc1CN1CCNCC1,-3.83
5,Cc1ccc2nc(C3CCCN3Cc3cccc(CCN)c3)[nH]c2c1 (stereo unspecified),-4.63
6,CC(c1nccs1)N(C)S(=O)(=O)NCc1ccccc1 (stereo unspecified),25.4
7,CCc1nc2ccccc2n1C(CC)C(=O)N(C)CCc1noc(C)n1 (stereo unspecified),-20.6
8,OCC1(CC2CCCCO2)CCN(c2cnc3ccccc3n2)CC1 (stereo unspecified),-12.6
9,COC(=O)N1CCCCC1C(=O)N1CCC(c2ccncc2)CC1 (stereo unspecified),-3.09
10,COCCC1(CO)CCCN(C(=O)c2cc(C#N)c(=O)[nH]c2C)C1 (stereo unspecified),-0.759
11,O=C(NCc1ccc2c(c1)OCO2)c1ccccc1C1CCNC1 (stereo unspecified),38
12,CN(Cc1cc2cc(F)ccc2[nH]1)C(=O)C1CC(=O)N(C(C)(C)C)C1 (stereo unspecified),-1.21
13,CCC(C(=O)N(C)Cc1cc(-c2ccccc2)n[nH]1)n1cccn1 (stereo unspecified),-13.1
14,c1ccc(CCCn2ccnc2-c2cn(C3CCNCC3)nn2)nc1,22.4
15,CCNc1ncc(C(=O)NC(c2ccccc2)c2ccco2)cn1 (stereo unspecified),-9.5
16,Cc1ccc2cc(CNCCCO)c(=O)[nH]c2c1,-2.37
17,CC(=O)N1CCCCC1c1cc(C(=O)N2CCOCC2)[nH]n1 (stereo unspecified),-7.33
18,Cc1ccccc1CNc1nc(O)cc(C2CC(=O)N(C)C2)n1 (stereo unspecified),-7.17
19,COc1cccc(CNc2nc(O)cc(C3CC(=O)N(C)C3)n2)c1 (stereo unspecified),-11.6

row,SMILES,cytotoxicity at 70.5 h [%]
1,CNc1cc(CNC(=O)c2ccccc2)nc(-c2ccncc2)n1,11.4
2,CNc1cc(CNC(=O)c2ccccn2)nc(-c2ccncc2)n1,11.9
3,O=C(CC1CCCC1)N1CCCC(c2n[nH]c3nccnc23)C1 (stereo unspecified),-0.397
4,CC(=O)N1CCC(c2nccnc2Oc2ccccc2)CC1,1.62
5,Cn1ccc(C(=O)N2CCC(Cc3cccc4cccnc34)C2)n1 (stereo unspecified),-5.77
6,Cn1ccc(C(=O)N2CCC(Cc3cnc4[nH]ccc4c3)CC2)n1,-5.86
7,CNc1cccc(C2CCCN(C(=O)c3ccncc3)C2)n1 (stereo unspecified),-2.97
8,Cn1ccnc1CN1CCCC(Cc2ccccn2)C1 (stereo unspecified),34.7
9,O=C(c1cccs1)N1CCC(O)(CN2CCc3ccccc3C2)C1 (stereo unspecified),-2.95
10,COc1ccc(CN(C)[C@@H]2CN(C(=O)c3cccs3)C[C@H]2O)cc1,-6.31
11,COc1cnc(C2(O)CCN(C(=O)c3cccnc3)CC2)c(OC)n1,-4.88
12,COc1cnc(C2(O)CCN(C(=O)c3ccncc3)CC2)c(OC)n1,-4.69
13,CC(=O)NCCc1cc(N2CCN(C(C)=O)CC2)nc(C2CC2)n1,-5.29
14,CNc1cncc(C2CCCN2Cc2ccccn2)n1 (stereo unspecified),-6.51
15,CC(=O)N1CCCCC1c1nc2c(c(N3CCCCC3)n1)CN(C)CC2 (stereo unspecified),-1.02
16,CC(C)c1nccn1-c1cccc(C2CCN(C)CC2)n1,27.3
17,Cc1cc(-c2cnn(CCNC(=O)C3CCCO3)c2C2CC2)on1 (stereo unspecified),-9.36
18,O=C(Cn1cccnc1=O)NC(Cc1ccsc1)c1ccccn1 (stereo unspecified),-11.2
19,CS(=O)(=O)c1snnc1C1CCN(Cc2ccncc2)CC1,-7.11

row,SMILES,cytotoxicity at 70.5 h [%]
1,COc1cc2nc3n(c(=O)c2cc1OC)CCN(C(C)=O)CC3,-13.7
2,CCCNCc1cc2c(C)cc(C)cc2n2c(=O)n(C)nc12,-8.78
3,O=C(Cn1ccnc1)N1C[C@@H]2CC[C@H](Oc3ccccc3Cl)[C@@H]2C1,1.01
4,CN(C)CC(=O)N1C[C@@H]2CC[C@H](Oc3ccccc3Cl)[C@@H]2C1,-15.6
5,CC(C)N1CCC(Cc2cnc(-c3cccc(C(=O)O)c3)cn2)C1 (stereo unspecified),-19.1
6,CN(C)Cc1ccnc(C2CCCN2Cc2ccncc2)n1 (stereo unspecified),18.5
7,Cc1cnccc1CN1C[C@@H](O)[C@H](Oc2ccccc2)C1,-5.34
8,CNC(=O)C1(c2cnccn2)CCCN1C(=O)c1ccccc1OC (stereo unspecified),13.3
9,Cc1ccccc1S(=O)(=O)N1CCCCC1c1ccn[nH]1 (stereo unspecified),-28.4
10,Cc1cncc(C2CCCN(C(=O)c3ccc(C)[nH]c3=O)C2)n1 (stereo unspecified),-4.5
11,Cc1cc(-c2cnn(CCNC(=O)C3CC3)c2C2CC2)on1,27
12,Cn1nc(C2CCCN(Cc3cccc(F)c3)C2)c2nccnc21 (stereo unspecified),-4.33
13,OC[C@H]1CC[C@]2(CC1)CN(Cc1ccccn1)Cc1ccccc1O2,-13.2
14,Cc1cc(C)n(CC(=O)NC(Cc2ccsc2)c2ccccn2)c(=O)n1 (stereo unspecified),13.9
15,Cc1ccc(=O)n(CC2(O)CCN(Cc3cc(C)c(O)c(C)c3)CC2)n1,22.7
16,Cc1nc(O)cc(C2CCN(Cc3cccc(F)c3F)C2)n1 (stereo unspecified),-14.5
17,COc1ccc(F)c(CN2CCC(c3cc(O)nc(C)n3)C2)c1 (stereo unspecified),32.2
18,Cc1ccc(CN(Cc2cccnc2)C2CC(C)(C)NC(C)(C)C2)s1,9.23
